Laboratory results reported in BindingDB's records for doi:10.1080/14756360400015231 (Quaid-I-Azam University, 2005).
pIC50: −log10 of the molar value.

These molecules were tested against Carboxylic ester hydrolase (Equus caballus, UniProt Q9N1N9) (assay: Enzyme Inhibition Assay). Conditions: pH 8; 25 °C.
Protocol: In vitro cholinesterase inhibition assay using electric-eel acetylcholinesterase, horse-serum butyrylcholinesterse. The IC50 values were calculated using the […] enzyme kinetics program (Perrella Scientific Inc., Amherst, USA).

Sequence of Carboxylic ester hydrolase (Q9N1N9 whole entry): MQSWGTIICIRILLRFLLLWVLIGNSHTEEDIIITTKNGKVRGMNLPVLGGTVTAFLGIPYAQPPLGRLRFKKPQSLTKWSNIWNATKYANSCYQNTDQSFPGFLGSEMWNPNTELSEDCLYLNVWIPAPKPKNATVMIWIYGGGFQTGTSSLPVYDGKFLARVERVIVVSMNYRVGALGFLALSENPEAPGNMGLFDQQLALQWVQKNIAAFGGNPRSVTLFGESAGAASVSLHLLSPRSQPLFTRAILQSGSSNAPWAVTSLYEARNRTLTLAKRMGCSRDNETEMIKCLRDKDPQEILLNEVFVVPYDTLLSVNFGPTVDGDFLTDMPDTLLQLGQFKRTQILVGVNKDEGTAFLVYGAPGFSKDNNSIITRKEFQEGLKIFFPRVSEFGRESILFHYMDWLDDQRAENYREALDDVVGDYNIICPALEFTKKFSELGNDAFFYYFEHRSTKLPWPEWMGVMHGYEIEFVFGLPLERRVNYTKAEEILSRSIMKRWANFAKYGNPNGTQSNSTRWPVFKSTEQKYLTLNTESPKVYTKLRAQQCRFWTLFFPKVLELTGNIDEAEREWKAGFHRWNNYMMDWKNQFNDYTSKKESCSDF

Structure (SMILES)	pIC50
O=C(/C=C/c1ccccc1O)c1ccccc1 [Chalcone, 1]	4.80
COc1ccc(/C=C/C(=O)c2ccccc2)cc1 [Chalcone, 4]	4.41
O=C(/C=C/c1ccc(O)cc1)c1ccccc1 [Chalcone 2]	4.40
O=C(/C=C/c1ccccc1)c1ccccc1 [Chalcone, 13]	3.96
COc1ccc(/C=C/C(=O)c2ccccc2)cc1OC [Chalcone, 5]	4.64
O=C(/C=C/c1cccc(O)c1)c1ccccc1 [Chalcone, 2]	4.34
